In US9999623B2, “Use of substituted 2,3-dihydroimidazo[1,2-c]quinazolines for treating lymphomas” (BAYER PHARMA AKTIENGESELLSCHAFT, priority 2013, dated 2018):
Where a name gives a salt, the structure may show the parent alone.

Columns and labels:
DLBCL cell lines = test: 72-h CellTiter-Glo anti-proliferative assay; type: cell-based, human; conditions: for anti-proliferative activity profile across DLBCL cell lines: panel of 8 DLBCL cell lines; for IC50: Homo sapiens
Experimental: Briefly, cells were plated at 250-2000 cells/well of 384-well plates (based on cell lines) in 20 μL of growth medium. For each cell line assayed, cells were plated into a separate plate for determination of luminescence at the t=0 hours and t=72 hour time points. […] Dose plates for t=72 hour time points were treated with compounds diluted into growth medium in a final volume of 30 μL. Cells were then incubated for 72 hours at 37° C. Luminescence values for the t=72 hour samples were determined by adding 30 μL of Promega CellTiter-Glo solution, placing the cells on a shaker for 10 minutes at room temperature, and then reading the luminescence using a Victor luminometer. For data processing, t=0 values are subtracted from those determined for the t=72 hour time points, for both the treated and untreated samples. Percent differences in luminescence between drug treated and controls are used to determine percent inhibition of growth.

[1] = test system: signaling pathways in OCI-Ly3 and HBL-1 cells; test: Western blot modulation of intracellular signaling pathways; type: cell-based, human; conditions: 24 h post treatment
Experimental: Modulation of intracellular pathways were assessed by Western blots at 24 h post treatment with indicated compounds either as single agent or in combination. Antibodies used in this study are AKT (#4685, Cell Signaling), p-AKT (04060, Cell Signaling), ERK (#4695, Cell Signaling), p-ERK (#4376, Cell Signaling), BTK (#3533, Cell Signaling), p-BTK (05082, Cell Signaling), IκBα (#4812, Cell Signaling), p-IκBα (#AF4809, R&D), p-IKKα/β (02078, Cell Signaling), IKKβ (02370, Cell Signaling).

follicular NHL [2] = test: Initial clinical efficacy in NHL patients (phase I dose-escalation), follicular NHL; type: in vivo, human; conditions: patients with PR/patients; PR at end of cycle 2 at 0.8 mg/kg, one case end of cycle 4 at 0.6 mg/kg
Experimental: A phase I dose-escalation study (Patnaik et al, ASH 2012) established the maximum tolerated dose of COMPOUND OF FORMULA I (0.8 mg/kg) and reported promising activity (6/6 PR) in follicular lymphoma. In the present study we further investigated the activity and safety of COMPOUND OF FORMULA I in patients with indolent or aggressive lymphoma subtypes that have progressed after standard therapy.

Half-life in mice = conditions: mouse, in vivo, iv
DLBCL [3] = test: Initial clinical efficacy in NHL patients (phase I dose-escalation), DLBCL; type: in vivo, human; conditions: DLBCL patient with SD
follicular NHL [4] = conditions: phase I dose-escalation study (Patnaik et al, ASH 2012); cited from earlier work
[5] = phase I dose-escalation study (Patnaik et al, ASH 2012); cited from earlier work
[6] = Phase II study, single agent, safety (adverse events); type: in vivo, human
Experimental: Patients received COMPOUND OF FORMULA I at a dose of 0.8 mg/kg as a 1 hour infusion on days 1, 8 and 15 of a 28-day cycle. Patients continued on therapy until disease progression or unacceptable toxicity.

[7] = test system: indolent or aggressive lymphoma; test: Phase II study, single agent, response by lymphoma subtype; type: in vivo, human; conditions: for Best response CR/CRu, number of patients / Best response PD, number of patients / Best response PR, number of patients / Best response SD, number of patients: staged patients; for complete RR / overall response rate (RR): interim analysis
Experimental: In this Phase II study, patients with histologically confirmed indolent or aggressive lymphoma relapsed or refractory to ≥2 prior lines of treatment were eligible. Patients received COMPOUND OF FORMULA I at a dose of 0.8 mg/kg as a 1 hour infusion on days 1, 8 and 15 of a 28-day cycle. Patients continued on therapy until disease progression or unacceptable toxicity. Responses were assessed every two cycles according to the response criteria for lymphoma (Cheson et al, JCO 17:1244, 1999) or the guidelines for diagnosis and treatment of chronic lymphocytic leukemia (CLL; Hallek et al., Blood 111:5446-56, 2008).
As of May 31, 2013, a total of 61 lymphoma patients (27 indolent and 34 aggressive) were enrolled and 56 started study treatment. Patients were similarly distributed among indolent and aggressive cohorts with respect to gender (52% female), median age (68 yr, range 22-90) and ethnicity (76% Caucasian) and were heavily pretreated (median number of prior therapies: 3; prior Rituximab: 84%; prior ASCT: 20%). Other characteristics included advanced stage III-IV in 85% and B symptoms in 17%. The following entities were represented: follicular (FL; n=13); CLL (n=11); marginal zone (MZL; n=3; none re-staged); diffuse large B-cell (DLBCL; n=17); mantle cell (MCL; n=7); transformed (n=5); and peripheral T-cell (PTCL; n=4). At the time of analysis patients had received between 1 and 5 cycles of treatment. Objective responses were seen across histologic subtypes (Table 1). At the time of this interim analysis, the overall response rate (RR) and complete RR were 44% and 22% in FL, 83% and 17% in MCL, and 50% and 0% in PTCL, respectively.

DLBCL [8] = conditions: patients with PD/patients; cited from earlier work
TMD-8 tumor cells = conditions: 20 mg/kg once daily po; day 29
Experimental: Untreated female 5-6 week old CB17.Scid mice are inoculated with 10×10^6 TMD-8 tumor cells (suspended in 50% Matrigel and 50% Medium) subcutaneously into the flank. Animals are randomized to treatment groups when tumors reach a tumor area of 30-35 mm^2. Treatment is conducted as described in FIG. 5 legend. Tumor area and animal body are recorded three times per week.
Tumor growth was monitored by determination of the tumor area using caliper measurement 3 times weekly. QD, once daily; SD, standard deviation of the mean; TGI, relative tumor growth inhibition vs control (%, tumor area at the end of the study on day 29)

With O=C1Nc2nc(-c3c(O)cccc3OCC3CC3)cc([C@@H]3CCCNC3)c2CO1 [BAY Compound B] the “anti-proliferative activity profile across DLBCL cell lines” value (DLBCL cell lines) was “more active in ABC-DLBCL compared with GCB-DLBCL cell lines” and the “feedback activation of p-IKKα/β” value ([1]; both HBL-1 and OCI-Ly3 cells) was “Activation of p-IKKα/β”.
With COc1c(OCCCN2CCOCC2)ccc2c1N=C(NC(=O)c1cnc(N)nc1)N1CCN=C21 [COMPOUND A, 2-amino-N-[7-methoxy-8-(3-morpholin-4-ylpropoxy)-2,3-dihydroimidazo[1,2-c]quinazolin-5-yl]pyrimidine-5-carboxamide dihydrochloride] the “PR (partial response) in follicular NHL” value (follicular NHL [2]) was 6/6, the half-life (Half-life in mice) was ~1 h and the tumor reduction (DLBCL [3]) was 39%.
For COc1c(OCCCN2CCOCC2)ccc2c1N=C(NC(=O)c1cnc(N)nc1)N1CCN=C21 [COMPOUND OF FORMULA I, 2-amino-N-[7-methoxy-8-(3-morpholin-4-ylpropoxy)-2,3-dihydroimidazo[1,2-c]quinazolin-5-yl]pyrimidine-5-carboxamide], the “PR in follicular lymphoma” value (follicular NHL [4]) is given as 6/6, the maximum tolerated dose [5] is given as 0.8 mg/kg and the deaths ([6]; 1 progressive disease, 1 acute respiratory insufficiency, 1 Cryptococcal meningitis, 1 sepsis after salvage chemotherapy) is given as “Four”. For the same compound, the toxicity profile ([6]; 1st line, 2nd line, relapsed, refractory lymphoma) was “acceptable toxicity profile”, the “cases of interstitial pneumonitis” value ([6]; both resolved following corticosteroid administration) was “two” and the “Hyperglycemia of any grade” value ([6]; in vivo) was 47%. For the same compound, the “Withdrawal of study drug due to AEs” value ([6]; in vivo) was 10 patients, the colitis ([6]; in vivo) was “No case of colitis was reported” and the “grade 4 hyperglycemia” value ([6]; in vivo) was “no grade 4 hyperglycemia was observed”. For the same compound, the “grade 4 hypertension” value ([6]; in vivo) was “no grade 4 hypertension was reported”, the “patients who required a dose reduction” value ([6]; in vivo) was 4 patients and the “patients who required antihypertensive treatment” value ([6]; in vivo) was “Eight”. The “patients who required insulin therapy” value ([6]; in vivo) was “Four”, the “Diarrhea of any grade” value ([6]; of cases) was 25% and the “Grade 3/4 AE diarrhea” value ([6]; of patients) was 5%. The “Grade 3/4 AE fatigue” value ([6]; of patients) was 5%, the “Grade 3/4 AE hyperglycemia” value ([6]; of patients) was 13% and the “Grade 3/4 AE hypertension” value ([6]; of patients) was 31%. The “Grade 3/4 AE neutropenia” value ([6]; of patients) was 16%, the “Grade 3 adverse events (AE)” value ([6]; of patients) was 49% and the “Hypertension of any grade” value ([6]; of patients) was 46%. For the same compound, the “Withdrawal of study drug due to AEs” value ([6]; of patients) was 16%, the “grade 4 AE (all neutropenia)” value ([6]; of patients) was 15% and the “Best response CR/CRu, number of patients” value ([7]; CLL (n = 9)) was 0. For the same compound, the “Best response PD, number of patients” value ([7]; CLL (n = 9)) was 1, the “Best response PR, number of patients” value ([7]; CLL (n = 9)) was 4 and the “Best response SD, number of patients” value ([7]; CLL (n = 9)) was 4. For the same compound, the “Best response CR/CRu, number of patients” value ([7]; DLBCL (n = 17)) was 0, the “Best response PD, number of patients” value ([7]; DLBCL (n = 17)) was 8 and the “Best response PR, number of patients” value ([7]; DLBCL (n = 17)) was 2. For the same compound, the “Best response SD, number of patients” value ([7]; DLBCL (n = 17)) was 7, the “Best response CR/CRu, number of patients” value ([7]; FL (n = 9)) was 2 and the “Best response PD, number of patients” value ([7]; FL (n = 9)) was 0. For the same compound, the “Best response PR, number of patients” value ([7]; FL (n = 9)) was 2, the “Best response SD, number of patients” value ([7]; FL (n = 9)) was 5 and the “complete RR” value ([7]; FL) was 22%. For the same compound, the “overall response rate (RR)” value ([7]; FL, 0.8 mg/kg days 1, 8, 15 of 28-day cycle) was 44%, the “Best response CR/CRu, number of patients” value ([7]; MCL (n = 6)) was 1 and the “Best response PD, number of patients” value ([7]; MCL (n = 6)) was 1. For the same compound, the “Best response PR, number of patients” value ([7]; MCL (n = 6)) was 4, the “Best response SD, number of patients” value ([7]; MCL (n = 6)) was 0 and the “complete RR” value ([7]; MCL) was 17%. For the same compound, the “overall response rate (RR)” value ([7]; MCL) was 83%, the “Best response CR/CRu, number of patients” value ([7]; PTCL (n = 4)) was 0 and the “Best response PD, number of patients” value ([7]; PTCL (n = 4)) was 2. For the same compound, the “Best response PR, number of patients” value ([7]; PTCL (n = 4)) was 2, the “Best response SD, number of patients” value ([7]; PTCL (n = 4)) was 0 and the “complete RR” value ([7]; PTCL) was 0%. For the same compound, the “overall response rate (RR)” value ([7]; PTCL) was 50%, the “Best response CR/CRu, number of patients” value ([7]; Transformed (n = 5)) was 0 and the “Best response PD, number of patients” value ([7]; Transformed (n = 5)) was 2. For the same compound, the “Best response PR, number of patients” value ([7]; Transformed (n = 5)) was 1, the “Best response SD, number of patients” value ([7]; Transformed (n = 5)) was 2 and the clinical activity ([7]; single agent, 1st line, 2nd line, relapsed, refractory lymphoma) was “clinically active as a single agent”.
For CC[C@H](Nc1ncnc2[nH]cnc12)c1nc2cccc(F)c2c(=O)n1-c1ccccc1 [GS-1101], the “PD (progression of disease) in DLBCL patients” value (DLBCL [8]) is given as 9/9, the “decreased activity with respect to IC50 values” (DLBCL cell lines; any mutations downstream of BCR) is given as > 100 fold and the “anti-proliferative activity profile across DLBCL cell lines” value (DLBCL cell lines) is given as “active only in BCR-mutant cell lines without downstream mutations”. For the same compound, the “feedback activation of p-ERK” value ([1]; HBL-1 cells) was “Activation of p-ERK”.
For C=CC(=O)N1CCC[C@@H](n2nc(-c3ccc(Oc4ccccc4)cc3)c3c(N)ncnc32)C1 [ibrutinib], the “TGI (rel TA)” value (TMD-8 tumor cells) was 70%, the IC50 (DLBCL cell lines; BCR-mutant cell lines even in the presence of activating NFκB pathway) was < 0.03 µM and the IC50 (DLBCL cell lines; cell lines without BCR-activating mutations (or complete inactivity)) was > 1 µM. The “feedback activation of p-ERK” value ([1]; both HBL-1 and OCI-Ly3 cells) was “Activation of p-ERK”.
